From ChEMBL document CHEMBL1201862, “PubChem BioAssay data set” (2004)
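Step 1: Grow cells in 96-well plates. Step 2: Expose to compound for 48 hours at 5 concentrations. Step 3: Interpolate endpoints linearly; if unreached, use highest concentration. Abbreviation: GI50, concentration required for 50% inhibition of growth.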 The source made the active and inactive calls. No stated cut-off is given here; in the data, active = GI50 up to about 1.1 µM and inactive = higher.

Assays:
Experiment in all cases: DTP human tumour cell line panel, 48 h
[1] = system: SK-MEL-5
[2] = system: MOLT-4
[3] = system: NCI-H226
[4] = system: M19-MEL
[5] = system: K562
[6] = system: CAKI-1
[7] = system: SN12C
[8] = system: OVCAR-4
[9] = system: OVCAR-8
[10] = system: SK-OV-3
[11] = system: SR
[12] = system: A498
[13] = system: NCI-H522
[14] = system: HL-60
[15] = system: CCRF-CEM
[16] = system: IGROV-1
[17] = system: SNB-78
[18] = system: SF-295
[19] = system: U-251
[20] = system: TK-10
[21] = system: SF-268
[22] = system: DMS-273
[23] = system: EKVX
[24] = system: SK-MEL-2
[25] = system: SF-539
[26] = system: NCI-H23
[27] = system: DLD-1
[28] = system: LXFL 529
[29] = system: OVCAR-3
[30] = system: 786-0
[31] = system: HCT-15
[32] = system: UO-31
[33] = system: UACC-257
[34] = system: LOX IMVI
[35] = system: COLO 205
[36] = system: UACC-62
[37] = system: SW-620
[38] = system: SNB-19
[39] = system: Malme-3M
[40] = system: HT-29
[41] = system: HCT-116
[42] = system: M14
[43] = system: HOP-62
[44] = system: KM12
[45] = system: OVCAR-5
[46] = system: RXF 631
[47] = system: NCI-H460
[48] = system: HCC 2998
[49] = system: A549
[50] = system: ACHN
[51] = system: KM-20L2
[52] = system: RPMI-8226

## COC(=O)[C@]1(C)CCC[C@@]2(C)C1CCC1=C[C@@]3(C(C)C)CC[C@]12OO3 (some centres not stated)
[1]
  GI50: 15.7 µM (inactive)
[2]
  GI50: 25.8 µM (inactive)
[3]
  GI50: 26.3 µM (inactive)
[4]
  GI50: 25.1 µM (inactive)
[5]
  GI50: 25.9 µM (inactive)
[6]
  GI50: > 10 µM (inactive)
[7]
  GI50: 31.3 µM (inactive)
[8]
  GI50: 42.3 µM (inactive)
[9]
  GI50: 35.8 µM (inactive)
[10]
  GI50: 60 µM (inactive)
[11]
  GI50: 19.4 µM (inactive)
[12]
  GI50: 20.4 µM (inactive)
[13]
  GI50: 17.8 µM (inactive)
[14]
  GI50: 19.1 µM (inactive)
[15]
  GI50: 17.9 µM (inactive)
[16]
  GI50: 33.2 µM (inactive)
[17]
  GI50: 54.3 µM (inactive)
[18]
  GI50: 25.8 µM (inactive)
[19]
  GI50: 41.8 µM (inactive)
[20]
  GI50: > 100 µM (inactive)
[21]
  GI50: 24.7 µM (inactive)
[22]
  GI50: 25.7 µM (inactive)
[23]
  GI50: 36.6 µM (inactive)
[24]
  GI50: 36.5 µM (inactive)
[25]
  GI50: 22.3 µM (inactive)
[26]
  GI50: 34.1 µM (inactive)
[27]
  GI50: 24.2 µM (inactive)
[28]
  GI50: 23.2 µM (inactive)
[29]
  GI50: 27.8 µM (inactive)
[30]
  GI50: 20.4 µM (inactive)
[31]
  GI50: 31.9 µM
[32]
  GI50: 18.5 µM (inactive)
[33]
  GI50: 26.2 µM (inactive)
[34]
  GI50: 24.7 µM (inactive)
[35]
  GI50: 22.5 µM (inactive)
[36]
  GI50: 25.3 µM (inactive)
[37]
  GI50: 36.1 µM (inactive)
[38]
  GI50: 58.2 µM (inactive)
[39]
  GI50: 42 µM (inactive)
[40]
  GI50: 15.2 µM (inactive)
[41]
  GI50: 25.2 µM (inactive)
[42]
  GI50: 22 µM (inactive)
[43]
  GI50: 36.9 µM (inactive)
[44]
  GI50: 24.6 µM (inactive)
[45]
  GI50: 22.4 µM (inactive)
[46]
  GI50: 22.6 µM (inactive)
[47]
  GI50: 21.1 µM (inactive)
[48]
  GI50: 31.3 µM (inactive)
[49]
  GI50: 30.6 µM (inactive)
[50]
  GI50: 36.4 µM (inactive)
[51]
  GI50: > 10 µM (inactive)
[52]
  GI50: 18.2 µM (inactive)
